Source: article PMC3260207, “Site-Directed Mutations and the Polymorphic Variant Ala160Thr in the Human Thromboxane Receptor Uncover a Structural Role for Transmembrane Helix 4” (PLoS ONE, 2012)
Where a chain is given by its changes, count along the chain named.

Columns and labels:
[1] = biological target: T1, TP A160T mutant (nsSNP variant) (Homo sapiens, UniProt P21731, A160T); experiment: Intracellular calcium mobilization (Fluo-4NW) in transfected HEK293T cells; format: cell-based; conditions: read-out: EC50 of agonist U46619 (calcium mobilized), transiently transfected HEK293T cells, mean ± S.E
T1 construct: expressed in transfected cells; HEK293T (calcium assays)
T1 sequence (P21731 1-343 A160T): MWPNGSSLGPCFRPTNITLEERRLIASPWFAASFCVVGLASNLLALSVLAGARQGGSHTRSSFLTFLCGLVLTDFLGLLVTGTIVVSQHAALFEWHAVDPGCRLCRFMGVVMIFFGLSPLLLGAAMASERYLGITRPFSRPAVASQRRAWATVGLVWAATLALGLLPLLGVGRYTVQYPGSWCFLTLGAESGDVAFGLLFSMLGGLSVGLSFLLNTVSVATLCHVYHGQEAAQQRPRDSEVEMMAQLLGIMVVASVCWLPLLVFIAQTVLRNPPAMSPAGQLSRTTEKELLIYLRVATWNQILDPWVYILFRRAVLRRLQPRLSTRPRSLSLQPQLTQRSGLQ
Method: (§1) Amino acid substitutions were introduced into the synthetic TPα gene carried by the expression vector pMT4 as described previously, [29]. DNA sequences of all the mutated genes were verified by automated DNA sequencing. To minimize variations in transfection efficiency, the total amount transfected DNA was kept constant in all cases at 1 µg of DNA per 7×10^5 cells. The wild type TP or mutant genes were expressed in COS-1 cells using a DEAE-dextran based transient transfection method, [29], and in HEK293T cells using lipofectamine 2000 (Invitrogen). Except unless specified, the membranes prepared from COS-1 cells were used for radioligand binding assays and immunoblots. For intracellular calcium determination assays and immunofluorescence imaging, HEK293T cells were used. For transient transfections of HEK293T cells using the plasmid pMT4, lipofectamine 2000 (Invitrogen) mediated transfection was used as described by the manufacturer. Membranes were prepared using Buffers A and B and as described previously, [29]. The protein concentration in the resuspended membrane pellet was determined using a modified DC protein assay kit from Bio-Rad Laboratories (Hercules, CA).
(§2) Changes in intracellular calcium were measured by using the fluorescent calcium sensitive dye Fluo-4NW (Invitrogen). After 6–8 hours of transient transfection of HEK293T cells using lipofectamine 2000, 100,000 viable cells were plated into each well of a 96-well tissue culture treated BD-falcon optilux plates. Cells mock transfected with vector pMT4 alone were used as a negative control. Following 24 hours of incubation at 37°C, the media was removed and cells were incubated with the dye Fluo-4NW (Invitrogen) containing 77 µg/ml of probenecid for 1 hour, as recommended by the manufacturer. […] Dose–response curves were generated and EC50 values calculated by nonlinear regression analysis using PRISM software version 5.0 (GraphPad Software Inc, San Diego, CA) after subtracting the responses of mock-transfected cells stimulated with same concentrations of agonists.

[2] = biological target: T2, TP A160V mutant (Homo sapiens, UniProt P21731, A160V); experiment: as above; format: cell-based; conditions: read-out: EC50 of agonist U46619 (calcium mobilized), transiently transfected HEK293T cells, mean ± S.E
T2 construct: expressed in transfected cells; HEK293T (calcium assays)
T2 sequence (P21731 1-343 A160V): T1 sequence (P21731 1-343 A160T) with T160V
Method: as §1, §2

EC50 [1]: 5.5 ± 0.3 nM
EC50 [2]: 9.5 ± 0.2 nM
Structure (SMILES): CCCCC[C@H](O)/C=C/[C@@H]1[C@@H](C/C=C\CCCC(=O)O)[C@H]2CO[C@@H]1C2 [U46619]
